The source of these data is US9107879B1, “Methods of increasing the cytotoxicity of chemotherapeutic agents with multisubstrate inhibitors of histone, protein-lys, polyamine acetylation, and polyamine metabolism” (Vanderbilt University, priority 2010, dated 2015).

One assay deals with H358 cells. Description: nucleotide excision repair assay (thymidine dimer slot blot). As to conditions: 40 J/m2 UVC then 50 μM 1a; within 24 hours (untreated cells 50%). The format is cell-based. As for the experimental part:
Also shown are controls for no treatment (“c” minus 1a) or treatment with 1a only (“c” plus 1a). Each lane represents 60 μg protein. […] Each lane represents 60 μg protein.
For NER, a slot blot immunoassay was used to detect the loss of thymidine dimers from the DNA of UVC treated cells as previously described. An antibody specific for cyclobutane pyrimidine dimers, the major photoproduct produced by UVC treatment, was purchased from Kamiya Biomedical Co(Seattle, Wash.; anti-thymidine dimer, clone KTM53) and used at 1:40 dilution.
DNA repair can promote cell survival following DNA damage. Nucleotide excision repair (NER), which requires histone acetylation (Cazzalini et al., 2008, 36: 1713-22) removes bulky DNA adducts such as the intrastrand guanine-adenine crosslinks caused by cisplatin or the intrastrand thymidine dimers produced by UVC radiation. We assayed NER in the presence or absence of 50 μM 1a using an immunoblot analysis of thymidine dimers in cellular DNA prepared from cells at fixed times after exposure to 40 J/m^2UVC radiation. […] The results support a model in which acetylation of the core histones, accompanied by localized relaxation of chromatin structure, may be necessary to initiate DNA repair, possibly by allowing access of DNA to multiprotein repair complex involved in nucleotide excision repair, or by promoting recruitment of those factors. […]

The subject of a further assay is DLD-1 colon cancer cells. The experiment in a line: 96-well MTS viability assay. It is filed as cell-based. The conditions noted are these: 3 days. The method, then:
Cells were plated in 96-well plates at 2000 cells per well and treated with the indicated doses of spd-3a. Cell viability was measured by the MTS assay 3 days later.
DLD-1 cells or H358 cells were plated in 96-well plates at 2000 cells per well and treated with the indicated doses of (A) spm-3 or (B) spm-2. (C) Cell viability was measured by the MTS assay 3 days later. Similar experiment using GT41 fibroblasts with spm2 or spm 3. Each assay point represents an average of duplicates.
A general note: Tetrazolium dyes change colour on reduction, which living cells bring about.

On to `CC(C)(COP(=O)(O)OP(=O)(O)OC[C@H]1O[C@@H](n2cnc3c(N)ncnc32)[C@H](O)[C@@H]1OP(=O)(O)O)[C@@H](O)C(=O)NCCC(=O)NCCSCC(=O)NCCCNCCCCN` [1a, spermidine[N1]-CoA], for which the “decrease of thymidine dimers in DNA” value with H358 cells is 40%.

`CC(=O)NCCSCC(=O)NCCCNCCCCNCCCN` [spm-3]: the “suppression of cell growth and viability, single agent” value with DLD-1 colon cancer cells was “effective as single agents”.
